For one assay, the system named is α-glucosidase. In words: in vitro α-glucosidase inhibition. In kind it is biochemical. The protocol: For in vitro α-glucosidase activity, samples were prepared by adding glucopyranoside to phosphate buffer solvent, and different concentrations of the synthesized compounds (31.25, 62.5, 125, 250, and 500 µg/ml), respectively, were added to this solution and then the enzyme glucosidase in distilled water (0.5 µg/ml) was also added to the above mixture. The reaction mixture thus prepared was subjected to incubation at 37°C for 20 minutes. The reaction was halted by adding HCl after incubation of the mixture. The intensity of the color was determined at 540 nm by spectrophotometer, and the formula given below was used for the determination of percent inhibition:(2) percent inhibition=absorbancecontrol−absorbancesample/absorbancecontrol×100.

In another assay the test system is α-amylase. In words: in vitro α-amylase inhibition. In kind it is biochemical. The protocol: The starch solution was added, following incubation of the mixture, and the reaction mixture thus prepared was kept in water bath at 100°C for some time. Microplate reader measured the intensity of the color at 656 nm. Following formula was used to determine percentage inhibition:(3) percent inhibition=absorbancecontrol−absorbancesample/absorbancecontrol×100.

A short description of the next assay: ABTS scavenging activity. Format: biochemical. On the procedure: For the determination of the antioxidant activity of the synthesized compounds, the previously reported method for ABTS scavenging activity was used with slight modification. The stock solution of 2.4 mM of potassium per sulfate solution and 7 mM ABTS solution was prepared by mixing them in equal volumes for 16 h. The stock solution thus prepared was diluted using methyl alcohol to give absorption of 0.7 ± 0.02 units when studied at the wavelength of 734 nm using a spectrophotometer. Fresh ABTS solution was prepared for each ABTS scavenging assay. About 150 μL of the ABTS working solution was added to 50 μL of synthesized compounds and kept in darkness for 10 min. […] Methanol was used as blank, and standard ascorbic acid was run at the same time. The absorbance was calculated utilizing a microplate reader at 734 nm.

The nature of a further assay: DPPH scavenging activity. Format: biochemical. The protocol: The antioxidant assay of the synthesized compounds was conducted following the previously reported method. A freshly prepared DPPH solution (50 μL of 1.0 × 10^−3 M) was added in methyl alcohol. Methanol was used as a control in this experiment. The prepared mixture was subjected to incubation at 25°C for 30 min. A decrease in the DPPH free radical concentration was calculated using a spectrophotometer at a wavelength of 517 nm. After incubation ascorbic acid was used as a positive control. The antioxidant activity was determined as a percent (%) of inhibition using the formula given:(1) percent inhibition=absorbancecontrol−absorbancesample/absorbancecontrol×100.
A general note: The DPPH test is a chemical assay of radical scavenging.

Assay [1] relates to diabetic mice (by alloxan). In words: antidiabetic activity in diabetic mice (by alloxan). Format: in vivo. The protocol:
Alloxan was used for the induction of diabetes mellitus according to reported procedure. Recently prepared Alloxan (ALX) was injected intraperitoneally to animals, fasting for 16 h, at a single dose of (150 mg/kg). […] Only diabetic animals, having random blood glucose level more than 200 mg/dl, were selected for studies. All the experimental procedure were approved from the ethical committee department of pharmacy, University of Swabi via letter No; UOS-06/2021.
A total of 30 animals were used to determine the hypoglycemic effect of the synthesized derivatives of succinimide. The experimental animals were segregated in six groups […], having five (5) animals in each group. Group I was designated as normal group and was given normal saline I/P only. Group II was given Tween 80, and Group III was given standard drug (glibenclamide) after the induction of diabetes. Group IV, Group V, and Group VI were given the various doses of synthesized compounds, respectively. […]

A further assay relates to mice. In words: oral glucose tolerance test (OGTT). In kind it is in vivo. Particulars: glucose 2 g/kg orally. The protocol: To perform OGTT mice fasted overnight were used including both control and treated mice. Glucose was administered orally at the dose of 2 g/kg against glibenclamide as standard drug. After administration of glucose, blood glucose level was calculated at time intervals of 0, 30, 60, and 120 min for assessment of the impact of exogenously given D-glucose on treated mice. OGTT was carried out 5 days before the completion of the study.
To perform OGTT, mice fasted overnight were used including both control and treated mice. Glucose was administered orally at the dose of 2 g/kg against glibenclamide as a standard drug. After administration of glucose, blood glucose level was calculated at time intervals of 0, 30, 60, and 120 min for assessment of the impact of exogenously given D-glucose on treated mice.

SMILES strings stand for the structures. In brackets after ≈: the same amount, converted by molar mass.

Consider `C[C@H]1O[C@H](O[C@H]2[C@H](O)[C@@H](O)[C@@H](O[C@H]3[C@H](O)[C@@H](O)C(O)O[C@@H]3CO)O[C@@H]2CO)[C@H](O)[C@@H](O)[C@@H]1N[C@H]1C=C(CO)[C@@H](O)[C@H](O)[C@H]1O` (stereo partly drawn) [Acarbose, reference compound], for which the “% inhibitions (α-glucosidase)” value in the assay on α-glucosidase (31.25 µg/ml) amounted to 67.90 ± 0.45%; with α-glucosidase (62.50 µg/ml), 73.00 ± 0.30%; in the assay with α-glucosidase (125 µg/ml), 80.90 ± 0.60%; in the assay on α-glucosidase (250 µg/ml), 86.45 ± 0.90%; with α-glucosidase (500 µg/ml), 92.23 ± 0.22%. Moreover, the “% inhibitions (α-amylase)” value with α-amylase (31.25 µg/ml) was 63.62 ± 0.58%; with α-amylase (62.50 µg/ml), 69.42 ± 1.55%; with α-amylase (125 µg/ml), 76.20 ± 0.49%; in the assay with α-amylase (250 µg/ml), 82.47 ± 0.71%; in the assay on α-amylase (500 µg/ml) it was 87.75 ± 0.42%.

For the molecule `O=C1O[C@H]([C@@H](O)CO)C(O)=C1O` [Ascorbic acid, reference compound], the “IC50 (ABTS)” value in the assay “ABTS scavenging activity” was 6.84 µg/mL (≈ 38.8 µM). Also, the “(%) ABTS inhibitions” value in “ABTS scavenging activity” (31.25 µg/ml) turned out to be 63.89 ± 0.20%; in the assay “ABTS scavenging activity” (62.50 µg/ml) it was 75.45 ± 0.90%; in “ABTS scavenging activity” (125 µg/ml), 77.61 ± 0.43%; in “ABTS scavenging activity” (250 µg/ml) it was 82.40 ± 0.20%; in “ABTS scavenging activity” (500 µg/ml) it was 87.08 ± 0.47%. In the assay “DPPH scavenging activity”, the “IC50 (DPPH)” value is 7.10 µg/mL (≈ 40.3 µM). For the same molecule, the “(%) DPPH inhibitions” value in the assay “DPPH scavenging activity” (31.25 µg/ml) turned out to be 68.42 ± 0.43%; in “DPPH scavenging activity” (62.50 µg/ml), 73.22 ± 1.28%; in the assay “DPPH scavenging activity” (125 µg/ml) it was 79.52 ± 0.66%; in “DPPH scavenging activity” (250 µg/ml), 84.56 ± 0.45%; in “DPPH scavenging activity” (500 µg/ml), 90.65 ± 1.32%.

Regarding `O=C1CCCCC1C1CC(=O)N(c2ccccc2)C1=O` (stereo not drawn) [BW1, (2-Oxocyclohexyl)-1-Phenylpyrrolidine-2,5-Dione], in “ABTS scavenging activity”, the “IC50 (ABTS)” value was 9.40 µg/mL (≈ 34.6 µM). In addition, the “(%) ABTS inhibitions” value was 55.67 ± 0.32^∗∗∗ % in the assay “ABTS scavenging activity” (31.25 µg/ml); 66.16 ± 0.16^∗∗∗ % in “ABTS scavenging activity” (62.50 µg/ml); 70.62 ± 0.25^∗∗∗ % in “ABTS scavenging activity” (125 µg/ml); 73.36 ± 0.84^∗∗∗ % in the assay “ABTS scavenging activity” (250 µg/ml); 78.35 ± 0.23^∗∗∗ % in the assay “ABTS scavenging activity” (500 µg/ml). Besides, the “IC50 (DPPH)” value in “DPPH scavenging activity” came to 10.84 µg/mL (≈ 40 µM). The “(%) DPPH inhibitions” value is 62.03 ± 0.77^∗∗∗ % in “DPPH scavenging activity” (31.25 µg/ml), 77.23 ± 0.96^∗∗∗ % in “DPPH scavenging activity” (250 µg/ml) and 85.83 ± 0.47^∗∗ % in “DPPH scavenging activity” (500 µg/ml). Also, the “IC50 (α-glucosidase)” value against α-glucosidase is 10.49 µg/mL (≈ 38.7 µM). The “% inhibitions (α-glucosidase)” value in the assay with α-glucosidase (31.25 µg/ml) is 65.80 ± 0.90^ns %; in the assay with α-glucosidase (62.50 µg/ml) it was 70.40 ± 0.20^ns %; in the assay with α-glucosidase (125 µg/ml) it was 76.58 ± 0.63^ns %; with α-glucosidase (250 µg/ml), 83.45 ± 0.90^ns %; with α-glucosidase (500 µg/ml) it was 89.08 ± 1.04^ns %. Besides, the “IC50 (α-amylase)” value on α-amylase is 13.90 µg/mL (≈ 51.2 µM). The “% inhibitions (α-amylase)” value is 57.40 ± 0.40^∗∗∗ % in the assay on α-amylase (31.25 µg/ml); 65.08 ± 0.66^∗∗∗ % with α-amylase (62.50 µg/ml); 71.78 ± 0.44^∗∗∗ % in the assay with α-amylase (125 µg/ml); 75.32 ± 0.40^∗∗∗ % with α-amylase (250 µg/ml); 81.60 ± 0.00^∗∗∗ % in the assay on α-amylase (500 µg/ml). Besides, the “Change in body weight” value in assay [1] (dose 31.25 μg/kg) is “+2.3 Gm”; in assay [1] (dose 62.5 μg/kg), “+4.3 Gm”; in assay [1] (dose 125 μg/kg), “+4.1 Gm”; in assay [1] (dose 250 μg/kg) it was “+5.7 Gm”; in assay [1] (dose 500 μg/kg), “+7.1 Gm”. For the same molecule, the “Blood glucose level, 0 day” value in assay [1] (dose 31.25 μg/kg) came to 418 mg/dL; in assay [1] (dose 62.5 μg/kg), 380 mg/dL; in assay [1] (dose 125 μg/kg) it was 443 mg/dL; in assay [1] (dose 250 μg/kg), 421 mg/dL; in assay [1] (dose 500 μg/kg), 412 mg/dL. Further, the “Blood glucose level, 4th day” value in assay [1] (dose 31.25 μg/kg) came out at 408 mg/dL; in assay [1] (dose 62.5 μg/kg), 371 mg/dL; in assay [1] (dose 125 μg/kg), 431 mg/dL; in assay [1] (dose 250 μg/kg) it was 397 mg/dL; in assay [1] (dose 500 μg/kg) it was 388 mg/dL. Also, the “Blood glucose level, 7th day” value in assay [1] (dose 31.25 μg/kg) was 399 mg/dL; in assay [1] (dose 62.5 μg/kg), 365 mg/dL; in assay [1] (dose 125 μg/kg), 413 mg/dL; in assay [1] (dose 250 μg/kg), 345 mg/dL; in assay [1] (dose 500 μg/kg), 372 mg/dL. The “Blood glucose level, 10th day” value in assay [1] (dose 31.25 μg/kg) was found to be 382 mg/dL; in assay [1] (dose 62.5 μg/kg) it was 351 mg/dL; in assay [1] (dose 125 μg/kg) it was 401 mg/dL; in assay [1] (dose 250 μg/kg), 219 mg/dL; in assay [1] (dose 500 μg/kg), 312 mg/dL. Besides, the “Blood glucose level, 15th day” value in assay [1] (dose 31.25 μg/kg) was 375 mg/dL; in assay [1] (dose 62.5 μg/kg) it was 346 mg/dL; in assay [1] (dose 125 μg/kg), 394 mg/dL; in assay [1] (dose 250 μg/kg), 214 mg/dL; in assay [1] (dose 500 μg/kg), 291 mg/dL. The “Decrease in blood glucose after 15 days” value in assay [1] (dose 62.5 μg/kg) stood at 34 mg/dL; in assay [1] (dose 125 μg/kg), 49 mg/dL; in assay [1] (dose 250 μg/kg) it was 207 mg/dL; in assay [1] (dose 500 μg/kg) it was 121 mg/dL. In the assay with mice, the “OGTT blood glucose, 0 minutes” value worked out at 165.8 mg/dL. Moreover, the “OGTT blood glucose, 30 minutes” value in the assay with mice came out at 194.4 mg/dL. For the same molecule, the “OGTT blood glucose, 60 minutes” value with mice turned out to be 211.8 mg/dL. Further, in the assay with mice, the “OGTT blood glucose, 120 minutes” value turned out to be 160.3 mg/dL.

As for `COc1ccc(Cl)cc1C(=O)NCCc1ccc(S(=O)(=O)NC(=O)NC2CCCCC2)cc1` [Glibenclamide, reference compound], in assay [1] (dose 0.5 (μg/kg)), the “Change in body weight” value is recorded as “+10.3 Gm”; the “Decrease in blood glucose after 15 days” value stood at 275 mg/dL; the “Blood glucose level, 0 day” value was determined as 473 mg/dL; the “Blood glucose level, 4th day” value worked out at 303 mg/dL. Further, in assay [1] (dose 0.5 (μg/kg)), the “Blood glucose level, 7th day” value turned out to be 257 mg/dL; the “Blood glucose level, 10th day” value amounted to 212 mg/dL; the “Blood glucose level, 15th day” value amounted to 198 mg/dL. For the same molecule, in the assay with mice, the “OGTT blood glucose, 0 minutes” value amounted to 151.5 mg/dL; the “OGTT blood glucose, 30 minutes” value was found to be 176.7 mg/dL; the “OGTT blood glucose, 60 minutes” value was 214.3 mg/dL; the “OGTT blood glucose, 120 minutes” value was 140.5 mg/dL.

(Values after PMC8979682, “Synthesis, Antioxidant, and Antidiabetic Activities of Ketone Derivatives of Succinimide” (Evidence-based Complementary and Alternative Medicine : eCAM, 2022).)
